Test results from the supplement of paper PMC10702517.
± gives the standard deviation.

Legend:
[1] = chemical recovery from spiked human plasma; higher = better extraction; conditions: pooled human plasma
[2] = chemical recovery into PDMS from spiked human plasma; higher = better extraction; conditions: pooled human plasma, extraction method: PES with PDMS
[3] = chemical recovery by SPE of plasma after PDMS sampling; higher = better extraction; conditions: pooled human plasma, extraction method: HLB SPE of plasma after PES
[4] = extraction method: PES+SPE (3 d PDMS equilibration then HLB SPE)
[5] = extraction method: SPE only (HLB 96-well)
[6] = extraction method: SPE only (HLB 96-well), PES comparison experiment
[7] = extraction method: solvent precipitation (ACN + hexane)
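For chemical recovery by SPE of plasma after PDMS sampling in this document: over 400 spiked chemicals quantified by LC-HRMS or GC-HRMS via internal standard calibration, recovery relative to spike mix added to unspiked plasma extract to correct matrix effects.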

Compound	chemical recovery [1, 4] [%]	chemical recovery [1, 5] [%]	chemical recovery [1, 6] [%]	chemical recovery [1, 7] [%]	chemical recovery into PDMS ([2]; equilibration time (d): 1) [%]	chemical recovery into PDMS ([2]; equilibration time (d): 3) [%]	chemical recovery into PDMS ([2]; equilibration time (d): 6) [%]	chemical recovery by SPE of plasma ([3]; equilibration time (d): 1) [%]	chemical recovery by SPE of plasma ([3]; equilibration time (d): 3) [%]	chemical recovery by SPE of plasma ([3]; equilibration time (d): 6) [%]
CCOC(=O)C1=C(C)NC(C)=C(C(=O)OC)C1c1cccc([N+](=O)[O-])c1 (stereo not given) [Nitrendipin]	37.1 ± 7.9	42.25 ± 0.22	51.5 ± 5.5	52.1 ± 2.9	13.4 ± 0.56	17.4 ± 3.6	18.6 ± 1.1	7.61 ± 0.89	5.18 ± 0.19	2.81 ± 0.16
C#C[C@]1(O)CC[C@H]2[C@@H]3CCC4=CC(=O)CC[C@@H]4[C@H]3CC[C@@]21C [Norethindrone]			54.2 ± 6.8		40.1 ± 2.1	46.1 ± 2.3	47.6 ± 1.2		4.09 ± 7.1	3.48 ± 6
c1ccc2c(c1)[nH]c1cnccc12 [Norharmane]	25.1 ± 5.9	39.6 ± 7.7	48 ± 6.7	77.7 ± 5.3	24.8 ± 1.2	28.3 ± 0.84	29 ± 1.6	3.67 ± 0.43	2.75 ± 0.47	1.79 ± 0.061
CNC(=O)CSP(=O)(OC)OC [Omethoate]		12.4 ± 5.1	40.1 ± 8.6		4.04 ± 3.2	5.92 ± 3.5	5.94 ± 4.2		13.5 ± 2.3	
CCCN(CCC)c1c([N+](=O)[O-])cc(S(N)(=O)=O)cc1[N+](=O)[O-] [Oryzalin]			49.6 ± 5.5		6.21 ± 0.56	10 ± 0.76	11.1 ± 1.2	39.2 ± 5.2	33.9 ± 3	27.7 ± 1.7
O=C1Nc2ccc(Cl)cc2C(c2ccccc2)=NC1O (stereo not given) [Oxazepam]	41.3 ± 2.3	38 ± 3.2	46.6 ± 6	73.9 ± 3.5	1.81 ± 0.18	3.65 ± 0.36	3.9 ± 0.52	29.1 ± 4	30.4 ± 2.4	27.7 ± 1.9
Clc1ccc(Cl)c(-c2ccccc2Cl)c1 [PCB18]			10 ± 1.9		48.2 ± 2.5	50.3 ± 10	46.5 ± 10	0.716 ± 0.48	0.693 ± 0.67	0.249 ± 0.43
Clc1ccc(Cl)c(-c2cccc(Cl)c2Cl)c1 [PCB44]	44 ± 11	3.94 ± 0.74	18.4 ± 4		83.5 ± 2.1	90.2 ± 12	99.1 ± 11	1.35 ± 0.87	1.34 ± 0.13	1.42 ± 0.29
Clc1ccc(Cl)c(-c2cc(Cl)c(Cl)cc2Cl)c1 [PCB101]	54.76 ± 0.33	1.78 ± 0.57	14 ± 2.6	91.2 ± 10	88.4 ± 5.7	98.4 ± 14	96.9 ± 3.5	1.75 ± 1.3	1.62 ± 0.22	1.45 ± 0.38
Clc1ccc(-c2cc(Cl)c(Cl)cc2Cl)cc1Cl [PCB118]		0.333 ± 0.1	3.8 ± 7.6	32 ± 1.2	74.9 ± 4.3			2.43 ± 1.6	1.87 ± 0.24	1.71 ± 0.54
Clc1cc(Cl)c(-c2ccc(Cl)c(Cl)c2Cl)cc1Cl [PCB138]	61.3 ± 12	2.27 ± 0.8	11.2 ± 2.8	81.6 ± 6.5	67.4 ± 9.5	91.8 ± 1.4	89.4 ± 5.2	4.29 ± 2.9	1.78 ± 0.29	1.33 ± 0.48
Clc1cc(Cl)c(-c2c(Cl)ccc(Cl)c2Cl)cc1Cl [PCB149]	56.86 ± 0.52	4.51 ± 1.5	10.4 ± 2	91 ± 6.8		103 ± 14	100 ± 8.1	3.35 ± 2.2	1.54 ± 0.15	1.29 ± 0.33
Clc1cc(Cl)c(-c2cc(Cl)c(Cl)cc2Cl)cc1Cl [PCB153]	62.9 ± 9	1.64 ± 0.63	10.3 ± 2.5	77.6 ± 3.5	55.1 ± 6.8	86.4 ± 3.6	82.2 ± 2.6	4.72 ± 3	2.08 ± 0.28	1.44 ± 0.58
Clc1cc(Cl)c(-c2cc(Cl)c(Cl)c(Cl)c2Cl)cc1Cl [PCB180]	40.2 ± 2.1	1.45 ± 0.68				67.8 ± 8	73.3 ± 5.7	4.51 ± 2.9	3.71 ± 1	1.43 ± 0.49
Clc1cc(-c2cc(Cl)c(Cl)c(Cl)c2Cl)c(Cl)c(Cl)c1Cl [PCB194]	38.3 ± 2.4	0.915 ± 0.53		2.72 ± 0.18		54.4 ± 6.3	63.4 ± 5.4	3.6 ± 2.3	5.05 ± 1.1	2.4 ± 0.65
Fc1ccc([C@@H]2CCNC[C@H]2COc2ccc3c(c2)OCO3)cc1 [Paroxetine]	3.9 ± 1.1	63.1 ± 3.8	42.8 ± 9.2	61.7 ± 1.7	0.404 ± 0.21	0.313 ± 0.1	0.637 ± 0.5	2.65 ± 0.22	3.11 ± 0.29	2.27 ± 0.16
CCC(CC)Nc1c([N+](=O)[O-])cc(C)c(C)c1[N+](=O)[O-] [Pendimethalin]		39 ± 11	32.3 ± 7.6	87.6 ± 9.3	45.8 ± 3	46.4 ± 4.9	47.5 ± 6.3		0.1 ± 0.17	
CC(=O)CCCCn1c(=O)c2c(ncn2C)n(C)c1=O [Pentoxifylline]	57.2 ± 6.1	46.9 ± 3.7	52.1 ± 4.9	76.5 ± 3.2	17.2 ± 0.99	24.5 ± 3.9	27 ± 2.1	37.9 ± 5.9	33.6 ± 3.5	25.1 ± 4.3
c1cc2cccc3c4cccc5cccc(c(c1)c23)c54 [Perylene]		1.66 ± 0.56		64.2 ± 5.1	73.8 ± 6.2	71.9 ± 9.9	79.5 ± 6	0.65 ± 0.62	1.03 ± 0.53	1.2 ± 0.41
CCOCCN(C(=O)CCl)C(=C(C)C)c1ccccc1 [Pethoxamid]			49.5 ± 6.9	56.3 ± 2.8	41 ± 2.5	43.5 ± 3.3	43.2 ± 1.5		0.187 ± 0.32	
O=S(=O)(O)c1ccc2[nH]c(-c3ccccc3)nc2c1 [Phenylbenzimidazole sulfonic acid]	43.2 ± 2.9	36.9 ± 3.3	52 ± 5.8	27.9 ± 3.1	0.124 ± 0.24			42.2 ± 5.2	49 ± 1.8	45.8 ± 8.4
CO/C=C(/C(=O)OC)c1ccccc1COc1cccc(C(F)(F)F)n1 [Picoxystrobin]		38.3 ± 2.8	47.8 ± 7.1	63.7 ± 4.3	47 ± 3.2	48.5 ± 5.8	48.7 ± 2.7	1.61 ± 0.23	2.06 ± 0.34	0.862 ± 0.75
O=C(/C=C/C=C/c1ccc2c(c1)OCO2)N1CCCCC1 [Piperine]		40.7 ± 2.7	56.1 ± 7.1	83.6 ± 4	34.8 ± 3.2	39.3 ± 4.2	36.6 ± 1.7	1.77 ± 0.44	1.85 ± 0.37	0.965 ± 0.074
CCCCOCCOCCOCc1cc2c(cc1CCC)OCO2 [Piperonyl butoxide]			39.5 ± 6.4		46.4 ± 3.2	48.7 ± 3.9	46 ± 2.6	0.249 ± 0.12	0.337 ± 0.29	0.24 ± 0.013
Cc1nc(N(C)C)nc(OC(=O)N(C)C)c1C [Pirimicarb]	55.6 ± 8	34.3 ± 1.5	41.4 ± 5.3	64.5 ± 2.5	29.3 ± 1.2	33.3 ± 1.8	34 ± 1.7	6.05 ± 0.55	6.09 ± 1	4.09 ± 0.28
